According to ChEMBL document CHEMBL4049397, “Design, synthesis and evaluation of derivatives based on pyrimidine scaffold as potent Pan-Raf inhibitors to overcome resistance” (Eur J Med Chem, 2017):

Experiment: in vitro
Conditions: human, liver microsomes

half-life at 0.5 µM: 5.6 h
Structure (SMILES): CNC(=O)c1cc(Oc2ccc(NC(=O)Nc3ccc(Cl)c(C(F)(F)F)c3)cc2)ccn1 [SORAFENIB]
